Reference: EPA's ToxRefDB 2

How the values were obtained:
dog [1] = conditions: Chronic toxicity; beagle; Oral; Feed; dose end: 52 week; group: systemic; systemic / clinical chemistry / albumin / albumin + systemic / clinical chemistry / triglycerides / triglycerides + systemic / pathology …
mouse [2] = conditions: Carcinogenicity, b6c3f1, Oral, Feed, dose end: 24 month, group: systemic
dog [3] = conditions: Subchronic oral toxicity in nonrodent, beagle, Feed, dose end: 13 week, group: systemic, systemic / organ weight / liver / absolute + systemic / organ weight / liver / relative to body weight + systemic / pathology microscopic / …
rat [4] = conditions: Combined chronic toxicity/carcinogenicity; wistar; Oral; Feed; dose end: 24 month; group: systemic; systemic / in life observation / body weight / body weight + systemic / in life observation / body weight / body weight gain + systemic / …
rat [5] = conditions: Subchronic oral toxicity in rodents, wistar, Feed, dose end: 90 day, group: systemic
rabbit = conditions: Prenatal developmental toxicity study, himalayan, Oral, Gavage/Intubation, dose end: 18 GD
mouse [6] = conditions: Carcinogenicity, other, Oral, Feed, dose end: 26 month, group: systemic
rat [7] = conditions: Prenatal developmental toxicity study, wistar, Oral, Gavage/Intubation, dose end: 15 GD
rat [8] = conditions: Prenatal developmental toxicity study, wistar, Dermal, Topical, dose end: 15 GD
[9] = systemic / pathology microscopic / adrenal gland / hyperplasia + systemic / clinical chemistry / bilirubin / total bilirubin
[10] = systemic / clinical chemistry / cytochrome p450, nos / cytochrome p450, nos + systemic / pathology microscopic / esophagus / hyperkeratosis…
[11] = group: developmental, developmental / developmental malformation / bone / [other] + developmental / developmental malformation / bone / absent + developmental / …
[12] = group: maternal, systemic / in life observation / body weight / body weight gain + systemic / in life observation / clinical signs / anal prolapse + systemic…
[13] = systemic / pathology gross / skin / desiccation + systemic / pathology microscopic / ear / hyperkeratosis + systemic / pathology microscopic…
[14] = group: developmental, developmental / developmental malformation / bone / incomplete ossification + developmental / developmental malformation / bone / unossified…
[15] = group: maternal, systemic / in life observation / body weight / body weight + systemic / in life observation / body weight / body weight gain + systemic / in…
[16] = group: developmental, developmental / developmental malformation / bone / incomplete ossification + developmental / developmental malformation / bone / unossified
[17] = group: maternal, systemic / in life observation / clinical signs / erythema + systemic / pathology gross / skin / [other]
[18] = group: maternal, systemic / in life observation / clinical signs / erythema + systemic / pathology gross / skin / [other] + systemic / pathology gross / skin…

`CCCN(CC)CC1COC2(CCC(C(C)(C)C)CC2)O1` (stereo not drawn) [Spiroxamine] was tested, and the LEL (dog [1]) was 25.8 mg/kg/day, the LOAEL (dog [1]) was 25.8 mg/kg/day and the NEL (dog [1]) was 2.48 mg/kg/day. For the same molecule, the NOAEL (dog [1]) was 2.48 mg/kg/day, the LOAEL (mouse [2]; systemic / pathology microscopic / adrenal gland / hyperplasia) was 150 mg/kg/day and the LEL (mouse [2]; [9]) was 41 mg/kg/day. The NEL (mouse [2]; [9]) was < 41 mg/kg/day, the NOAEL (mouse [2]; systemic / pathology microscopic / adrenal gland / hyperplasia + systemic / pathology microscopic / adrenal gland / adenoma + systemic / …) was 41 mg/kg/day and the LEL (dog [3]) was 20 mg/kg/day. The LOAEL (dog [3]) was 20 mg/kg/day, the NEL (dog [3]) was 0.66 mg/kg/day and the NOAEL (dog [3]) was 0.66 mg/kg/day. It also gave an LEL (rat [4]) of 32.8 mg/kg/day, an LOAEL (rat [4]) of 32.8 mg/kg/day and an NEL (rat [4]) of 4.22 mg/kg/day. The NOAEL (rat [4]) was 4.22 mg/kg/day, the LEL (rat [5]; [10]) was 9.3 mg/kg/day and the NEL (rat [5]; [10]) was 1.9 mg/kg/day. The NOAEL (rat [5]; [10]) was 9.3 mg/kg/day, the LOAEL (rat [5]; systemic / pathology microscopic / esophagus / hyperkeratosis + systemic / pathology microscopic / esophagus / hyperplasia + systemic / …) was 54.9 mg/kg/day and the LEL (rabbit; [11]) was 80 mg/kg/day. It also gave an LOAEL (rabbit; [11]) of 80 mg/kg/day, an NEL (rabbit; [11]) of 20 mg/kg/day and an NOAEL (rabbit; [11]) of 20 mg/kg/day. It also gave an LEL (rabbit; [12]) of 80 mg/kg/day, an LOAEL (rabbit; [12]) of 80 mg/kg/day and an NEL (rabbit; [12]) of 20 mg/kg/day. For the same molecule, the NOAEL (rabbit; [12]) was 20 mg/kg/day, the LOAEL (mouse [6]; [13]) was 59.3 mg/kg/day and the NEL (mouse [6]; [13]) was 4.5 mg/kg/day. For the same molecule, the NOAEL (mouse [6]; [13]) was 36.7 mg/kg/day, the LEL (mouse [6]; systemic / pathology microscopic / esophagus / acanthosis + systemic / pathology microscopic / esophagus / hyperkeratosis + systemic / …) was 36.7 mg/kg/day and the LOAEL (rat [7]; group: developmental, developmental / developmental malformation / bone / [other] + developmental / developmental malformation / mouth / jaw / cleft palate + …) was 100 mg/kg/day. The LEL (rat [7]; [14]) was 10 mg/kg/day, the NEL (rat [7]; [14]) was < 10 mg/kg/day and the NOAEL (rat [7]; [14]) was 30 mg/kg/day. The LEL (rat [7]; [15]) was 100 mg/kg/day, the LOAEL (rat [7]; [15]) was 100 mg/kg/day and the NEL (rat [7]; [15]) was 30 mg/kg/day. For the same molecule, the NOAEL (rat [7]; [15]) was 30 mg/kg/day, the LEL (rat [8]; [16]) was 80 mg/kg/day and the LOAEL (rat [8]; [16]) was 80 mg/kg/day. The NEL (rat [8]; [16]) was 20 mg/kg/day, the NOAEL (rat [8]; [16]) was 20 mg/kg/day and the LOAEL (rat [8]; [17]) was 5 mg/kg/day. For the same molecule, the NOAEL (rat [8]; [17]) was < 5 mg/kg/day, the LEL (rat [8]; [18]) was 5 mg/kg/day and the NEL (rat [8]; [18]) was < 5 mg/kg/day.
